Experimental data reported in patent US20240091254A1, “WNT AGONISTS FOR PREVENTION OF CANCER” (ACADEMISH MEDISCH CENTRUM, priority 2021, published 2024).

Legend:
[1] = Lithium levels in mouse serum after oral LiCl; type: in vivo; conditions: oral LiCl 300 mg/liter in tap water, Lgr5-CreErt2;Rosa26mTmG mice
Protocol: (§1) Lgr5-EGFP-IRES-Cre^ERT2 Villin-Cre^ERT2, Rosa26mTmG, Apc^fl/fl and Kras^G12D mice have been described earlier^30-34. All in vivo experiments were approved by the animal experimentation committee at the Amsterdam UMC—location Academic Medical Center in Amsterdam under nationally registered licence number AVD1180020172125 and performed according to national guidelines. Mice were housed in a 12 hour light/12 hour dark cycle, with temperatures between 20-24° C. and 40-70% humidity. For short term assays, both male and female mice were used. For long term assays, only females were used to prevent the risk of preliminary dropout due to fighting male mice. All mice were between 6-12 weeks old at the start of the experiments. For all mouse experiments, sufficient sample sizes were determined based on previous studies with a similar study design^3,35. Experimental animals were randomly assigned to the control or lithium treated groups, clone sizes and adenoma counts were scored blindly. […] Mouse discomfort during tumour formation assays was closely monitored, and endpoints were determined as <15% weight loss within 2 days or a mouse grimace scale (MGS) score<3. […] After 60 days, intestines were removed and polyps were counted macroscopically.

KrasG12D-mutant clones = test: KrasG12D clone dynamics in vivo with or without LiCl; set-up: species or system mouse; conditions: Lgr5-CreErt2;Rosa26mTmG;KrasG12D mice
Protocol: as §1, with “All mice were between 6-12 weeks old at the start of the experiments.” left out
(§2) After the mice were sacrificed, intestines were removed fully and washed thoroughly with ice-cold PBS. […] For all crypt analyses, clone sizes were quantified as proportions of the crypt circumference (in eights, 1:8-8:8). […]

[2] = tested on: intestinal stem cells (ISCs) / intestinal epithelial cells; test: Oral LiCl in WT Lgr5-CreErt2;Rosa26mTmG mice: Wnt activation and neutral ISC dynamics; type: in vivo, mouse
Protocol: as §1, with “All mice were between 6-12 weeks old at the start of the experiments.” left out
as §2

intestinal adenomas = test: Long term adenoma formation in Lgr5-CreErt2;Apcfl/fl mice; type: in vivo, mouse; conditions: LiCl pre-treatment and maintenance, 60 days after induction
Protocol: as §1

[3] = tested on: Wnt pathway (TOP-GFP reporter); test: TOP-GFP Wnt reporter assay in MEFs; type: cell-based, mouse
Protocol: Mouse embryonic fibroblasts (MEFs, ATCC) and HEK293T (ATCC) cells were both cultured in Dulbecco's Modified Eagle's Medium (DMEM) supplemented with 10% fetal calf serum (FCS), 1% Glutamine, and antibiotic penicillin and streptomycin. Cells were maintained at 37° C. in humidified air containing 5% CO2. All cell lines were routinely checked for mycoplasm contamination, no cell line authentication was performed.
Mouse embryonic fibroblasts (MEFs) were cultured in Dulbecco's Modified Eagle's Medium (DMEM) supplemented with 10% fetal calf serum (FCS), 1% Glutamine, and antibiotic penicillin and streptomycin. MEFs were stably transduced with Wnt reporter TOP-GFP (Addgene plasmid #35491). For TOP-GFP assays, cells were stimulated with Wnt3A conditioned medium for 24 hours after which GFP positivity was measured by flow cytometry.

Structure (SMILES): [Cl-].[Li+] [LiCl, lithium chloride]
- Serum concentrations (Li+), tolerability [1]: well-tolerated serum concentrations
- KrasG12D clone dynamics (KrasG12D-mutant clones): remained unaffected
- Influence on fundamental ISC dynamics (neutral ISC competition) ([2]; WT mice, oral LiCl): no influence on fundamental ISC dynamics
- Wnt activation in intestinal epithelial cells (Lgr5 expression, Lgr5-GFP cells) ([2]; oral LiCl 300 mg/liter in tap water): effective Wnt activation
- Adenoma formation (number of adenomas) (intestinal adenomas): markedly reduced adenoma formation in all segments of the intestine
- Effect on Apc-/- CM reduction of Wnt3a mediated Wnt activation (TOP-GFP) ([3]; MEFs, TOP-GFP reporter, 5 mM LiCl): completely abrogated this effect
- Wnt signalling activation in Wnt reporter assay, Li2CO3 compared with LiCl ([3]; comparable concentrations (5 or 10 mM)): activated the same amount of Wnt signalling
